Assay results published in US7417156B2, “Orally active, antimalarial, anticancer, artemisinin-derived trioxane dimers” (Johns Hopkins University, priority 2002, dated 2008).

What was measured:
60 cell line panel = assay type: cell-based
HOP-92 = experiment: NCI 60 cell line panel screen (SRB); assay type: cell-based, human
NCI-H23 = experiment: NCI 60 cell line panel screen (SRB); assay type: cell-based, human
NCI-H322M = assay type: cell-based
NCI-H460 = experiment: NCI 60 cell line panel screen (SRB); assay type: cell-based, human
COLO 205 = experiment: NCI 60 cell line panel screen (SRB); assay type: cell-based, human
HCT-116 = experiment: NCI 60 cell line panel screen (SRB); assay type: cell-based, human
HCT-15 = experiment: NCI 60 cell line panel screen (SRB); assay type: cell-based, human
KM12 = experiment: NCI 60 cell line panel screen (SRB); assay type: cell-based, human
SNB-19 = experiment: NCI 60 cell line panel screen (SRB); assay type: cell-based, human
SNB-75 = experiment: NCI 60 cell line panel screen (SRB); assay type: cell-based, human
U251 = experiment: NCI 60 cell line panel screen (SRB); assay type: cell-based, human
MALME-3M = experiment: NCI 60 cell line panel screen (SRB); assay type: cell-based, human
M14 = experiment: NCI 60 cell line panel screen (SRB); assay type: cell-based, human
SK-MEL-2 = experiment: NCI 60 cell line panel screen (SRB); assay type: cell-based, human
SK-MEL-28 = experiment: NCI 60 cell line panel screen (SRB); assay type: cell-based, human
IGROVI = experiment: NCI 60 cell line panel screen (SRB); assay type: cell-based, human
OVCAR-3 = experiment: NCI 60 cell line panel screen (SRB); assay type: cell-based, human
OVCAR-5 = experiment: NCI 60 cell line panel screen (SRB); assay type: cell-based, human
786-0 = experiment: NCI 60 cell line panel screen (SRB); assay type: cell-based, human
TK-10 = experiment: NCI 60 cell line panel screen (SRB); assay type: cell-based, human
UO-31 = experiment: NCI 60 cell line panel screen (SRB); assay type: cell-based, human
PC-3 = experiment: NCI 60 cell line panel screen (SRB); assay type: cell-based, human
HS 578T = experiment: NCI 60 cell line panel screen (SRB); assay type: cell-based, human
MDA-MB-435 = experiment: NCI 60 cell line panel screen (SRB); assay type: cell-based, human
T-47D = experiment: NCI 60 cell line panel screen (SRB); assay type: cell-based, human
[1] = mean value over the 60 cell line panel

## C[C@@H]1CC[C@H]2[C@@H](C)C(CC(O)(CC3OC4O[C@]5(C)CC[C@H]6[C@H](C)CC[C@@H]([C@H]3C)C46OO5)c3ccc(C(=O)O)cc3)OC3O[C@]4(C)CCC1C32OO4 (stereo partly shown) [Compound 11b, bis-trioxane tertiary alcohol benzoic acid]
60 cell line panel
  Log10GI50 Delta: 0.93
  Log10GI50 Range: 3.52
60 cell line panel; 60 cell line panel
  Log10LC50 Delta: 1.58
  Log10LC50 Range: 1.65
  Log10TGI50 Delta: 3.18
  Log10TGI50 Range: 4.00
60 cell line panel; colon cancer KM12, ovarian cancer OVCAR 3, breast cancer MDA-MB-435
  growth inhibition in words: selectively and strong inhibitory
60 cell line panel; mean over panel
  Log10GI50 MG MID: −7.37
60 cell line panel; [1]
  Log10LC50 MG MID: −4.37 log10M
  Log10TGI50 MG MID: −5.12 log10M
HOP-92; HOP-92 (Non-Small Cell Lung Cancer), LC50: PG=−50
  Log10LC50: >−4.30 log10M
HOP-92; HOP-92 (Non-Small Cell Lung Cancer), TGI: PG=0
  Log10TGI50: >−4.30 log10M
HOP-92; Non-Small Cell Lung Cancer, HOP-92
  Log10GI50: −7.43
NCI-H23; NCI-H23 (Non-Small Cell Lung Cancer), LC50: PG=−50
  Log10LC50: >−4.30 log10M
NCI-H23; NCI-H23 (Non-Small Cell Lung Cancer), TGI: PG=0
  Log10TGI50: −4.63 log10M
NCI-H23; Non-Small Cell Lung Cancer, NCI-H23
  Log10GI50: −8.19
NCI-H322M
  Log10GI50: −6.72
  Log10TGI50: >−4.30 log10M
NCI-H322M; NCI-H322M (Non-Small Cell Lung Cancer), LC50: PG=−50
  Log10LC50: >−4.30 log10M
NCI-H460; NCI-H460 (Non-Small Cell Lung Cancer), LC50: PG=−50
  Log10LC50: >−4.30 log10M
NCI-H460; NCI-H460 (Non-Small Cell Lung Cancer), TGI: PG=0
  Log10TGI50: >−4.30 log10M
NCI-H460; Non-Small Cell Lung Cancer, NCI-H460
  Log10GI50: <−8.30
COLO 205; COLO 205 (Colon Cancer), LC50: PG=−50
  Log10LC50: −5.28 log10M
COLO 205; COLO 205 (Colon Cancer), TGI: PG=0
  Log10TGI50: −6.99 log10M
COLO 205; Colon Cancer, COLO 205
  Log10GI50: <−8.30
HCT-116; Colon Cancer, HCT-116
  Log10GI50: <−8.30
HCT-116; HCT-116 (Colon Cancer), LC50: PG=−50
  Log10LC50: >−4.30 log10M
HCT-116; HCT-116 (Colon Cancer), TGI: PG=0
  Log10TGI50: −4.40 log10M
HCT-15; Colon Cancer, HCT-15
  Log10GI50: <−8.30
HCT-15; HCT-15 (Colon Cancer), LC50: PG=−50
  Log10LC50: >−4.30 log10M
HCT-15; HCT-15 (Colon Cancer), TGI: PG=0
  Log10TGI50: −6.70 log10M
KM12; Colon Cancer, KM12
  Log10GI50: <−8.30
KM12; KM12 (Colon Cancer), LC50: PG=−50
  Log10LC50: −5.95 log10M
KM12; KM12 (Colon Cancer), TGI: PG=0
  Log10TGI50: <−8.30 log10M
SNB-19; CNS Cancer, SNB-19
  Log10GI50: −6.53
SNB-19; SNB-19 (CNS Cancer), LC50: PG=−50
  Log10LC50: >−4.30 log10M
SNB-19; SNB-19 (CNS Cancer), TGI: PG=0
  Log10TGI50: >−4.30 log10M
SNB-75; CNS Cancer, SNB-75
  Log10GI50: −7.40
SNB-75; SNB-75 (CNS Cancer), LC50: PG=−50
  Log10LC50: >−4.30 log10M
SNB-75; SNB-75 (CNS Cancer), TGI: PG=0
  Log10TGI50: >−4.30 log10M
U251; CNS Cancer, U251
  Log10GI50: <−8.30
U251; U251 (CNS Cancer), LC50: PG=−50
  Log10LC50: >−4.30 log10M
U251; U251 (CNS Cancer), TGI: PG=0
  Log10TGI50: −7.39 log10M
MALME-3M; MALME-3M (Melanoma), LC50: PG=−50
  Log10LC50: >−4.30 log10M
MALME-3M; MALME-3M (Melanoma), TGI: PG=0
  Log10TGI50: −7.46 log10M
MALME-3M; Melanoma, MALME-3M
  Log10GI50: <−8.30
M14; M14 (Melanoma), LC50: PG=−50
  Log10LC50: >−4.30 log10M
M14; M-14 (Melanoma), TGI: PG=0
  Log10TGI50: >−4.30 log10M
M14; Melanoma, M14
  Log10GI50: −7.81
SK-MEL-2; Melanoma, SK-MEL-2
  Log10GI50: −6.43
SK-MEL-2; SK-MEL2 (Melanoma), LC50: PG=−50
  Log10LC50: >−4.30 log10M
SK-MEL-2; SK-MEL-2 (Melanoma), TGI: PG=0
  Log10TGI50: >−4.30 log10M
SK-MEL-28; Melanoma, SK-MEL-28
  Log10GI50: −6.40
SK-MEL-28; SK-MEL-28 (Melanoma), LC50: PG=−50
  Log10LC50: >−4.30 log10M
SK-MEL-28; SK-MEL-28 (Melanoma), TGI: PG=0
  Log10TGI50: >−4.30 log10M
IGROVI; IGROVI (Ovarian Cancer), LC50: PG=−50
  Log10LC50: >−4.30 log10M
IGROVI; IGROVI (Ovarian Cancer), TGI: PG=0
  Log10TGI50: −4.50 log10M
IGROVI; Ovarian Cancer, IGROVI
  Log10GI50: −5.98
OVCAR-3; OVCAR-3 (Ovarian Cancer), LC50: PG=−50
  Log10LC50: >−4.30 log10M
OVCAR-3; OVCAR-3 (Ovarian Cancer), TGI: PG=0
  Log10TGI50: −8.07 log10M
OVCAR-3; Ovarian Cancer, OVCAR-3
  Log10GI50: <−8.30
OVCAR-5; OVCAR-5 (Ovarian Cancer), LC50: PG=−50
  Log10LC50: >−4.30 log10M
OVCAR-5; OVCAR-5 (Ovarian Cancer), TGI: PG=0
  Log10TGI50: −6.95 log10M
OVCAR-5; Ovarian Cancer, OVCAR-5
  Log10GI50: <−8.30
786-0; 786-0 (Renal Cancer), LC50: PG=−50
  Log10LC50: >−4.30 log10M
786-0; 786-0 (Renal Cancer), TGI: PG=0
  Log10TGI50: >−4.30 log10M
786-0; Renal Cancer, 786-0
  Log10GI50: −7.17
TK-10; Renal Cancer, TK-10
  Log10GI50: −7.81
TK-10; TK-10 (Renal Cancer), LC50: PG=−50
  Log10LC50: >−4.30 log10M
TK-10; TK-10 (Renal Cancer), TGI: PG=0
  Log10TGI50: −5.86 log10M
UO-31; Renal Cancer, UO-31
  Log10GI50: −6.78
UO-31; UO-31 (Renal Cancer), LC50: PG=−50
  Log10LC50: >−4.30 log10M
UO-31; UO-31 (Renal Cancer), TGI: PG=0
  Log10TGI50: >−4.30 log10M
PC-3; PC-3 (Prostate Cancer), LC50: PG=−50
  Log10LC50: >−4.30 log10M
PC-3; PC-3 (Prostate Cancer), TGI: PG=0
  Log10TGI50: −5.75 log10M
PC-3; Prostate Cancer, PC-3
  Log10GI50: <−8.30
HS 578T; Breast Cancer, HS 578T
  Log10GI50: −5.15
HS 578T; HS 578T (Breast Cancer), LC50: PG=−50
  Log10LC50: >−4.30 log10M
HS 578T; HS 578T (Breast Cancer), TGI: PG=0
  Log10TGI50: >−4.31 log10M
MDA-MB-435; Breast Cancer, MDA-MB-435
  Log10GI50: −8.16
MDA-MB-435; MDA-MB-435 (Breast Cancer), LC50: PG=−50
  Log10LC50: >−4.30 log10M
MDA-MB-435; MDA-MB-435 (Breast Cancer), TGI: PG=0
  Log10TGI50: >−4.30 log10M
T-47D; Breast Cancer, T-47D
  Log10GI50: <−8.30
T-47D; T-47D (Breast Cancer), LC50: PG=−50
  Log10LC50: >−4.30 log10M
T-47D; T-47D (Breast Cancer), TGI: PG=0
  Log10TGI50: >−4.30 log10M
